The supplement of paper PMC8149375

Legend:
Conditions in all cases: treatment: drug alone; 5 days
TK-10 [1] = assay: minimum viability across doses, drug alone, relative to DMSO (fraction); higher = less growth inhibition
Description: (§1)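 Primary HTS: 8 RCC cell lines treated with 8 doses (up to 10 uM) of each library drug alone for 5 days; viability read by CellTiter-Glo and normalised to DMSO. GI50 was fitted with XLfit (4-parameter), AUC is the area under the dose-response curve, and minimum viability is the lowest fraction of DMSO viability across doses.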

A498 [2] = assay: as above
Description: as §1

786-O [3] = assay: as above
Description: as §1

UO-31 [4] = assay: as above
Description: as §1

CAKI-1 [5] = assay: as above
Description: as §1

ACHN [6] = assay: as above
Description: as §1

769-P [7] = assay: as above
Description: as §1

SN12C [8] = assay: as above
Description: as §1

TK-10 [9] = assay: GI50, drug alone; higher = less potent
Description: as §1

A498 [10] = assay: GI50, drug alone; higher = less potent
Description: as §1

786-O [11] = assay: GI50, drug alone; higher = less potent
Description: as §1

UO-31 [12] = assay: GI50, drug alone; higher = less potent
Description: as §1

CAKI-1 [13] = assay: GI50, drug alone; higher = less potent
Description: as §1

ACHN [14] = assay: GI50, drug alone; higher = less potent
Description: as §1

769-P [15] = assay: GI50, drug alone; higher = less potent
Description: as §1

SN12C [16] = assay: GI50, drug alone; higher = less potent
Description: as §1

TK-10 [17] = assay: AUC of dose-response viability curve, drug alone (arbitrary (AUC of normalised viability)); higher = less growth inhibition
Description: as §1

A498 [18] = assay: as above
Description: as §1

786-O [19] = assay: as above
Description: as §1

UO-31 [20] = assay: as above
Description: as §1

CAKI-1 [21] = assay: as above
Description: as §1

ACHN [22] = assay: as above
Description: as §1

769-P [23] = assay: as above
Description: as §1

SN12C [24] = assay: as above
Description: as §1

| SMILES | GI50, drug alone (786-O [11]) [µM] | GI50, drug alone (ACHN [14]) [µM] | minimum viability across doses (TK-10 [1]) | minimum viability across doses (A498 [2]) | minimum viability across doses (786-O [3]) | minimum viability across doses (UO-31 [4]) | minimum viability across doses (CAKI-1 [5]) | minimum viability across doses (ACHN [6]) | minimum viability across doses (769-P [7]) | minimum viability across doses (SN12C [8]) | GI50, drug alone (TK-10 [9]) [µM] | GI50, drug alone (A498 [10]) [µM] | GI50, drug alone (UO-31 [12]) [µM] | GI50, drug alone (CAKI-1 [13]) [µM] | GI50, drug alone (769-P [15]) [µM] | GI50, drug alone (SN12C [16]) [µM] | AUC of dose-response viability curve (TK-10 [17]) | AUC of dose-response viability curve (A498 [18]) | AUC of dose-response viability curve (786-O [19]) | AUC of dose-response viability curve (UO-31 [20]) | AUC of dose-response viability curve (CAKI-1 [21]) | AUC of dose-response viability curve (ACHN [22]) | AUC of dose-response viability curve (769-P [23]) | AUC of dose-response viability curve (SN12C [24]) |
| --- | --- | --- | --- | --- | --- | --- | --- | --- | --- | --- | --- | --- | --- | --- | --- | --- | --- | --- | --- | --- | --- | --- | --- | --- |
| Nc1cc(C(F)(F)F)c(-c2cc(N3CCOCC3)nc(N3CCOCC3)n2)cn1 [BKM120 (NVP-BKM120)] | 0.179 | 0.887 | 0.0981 | 0.134 | 0.00247 | 0.0226 | 0.0499 | 0.0858 | 0.0668 | 0.0728 | 0.641 | 1.93 | 1.45 | 0.608 | 1.57 | 1.67 | 2.2 | 2.89 | 1.56 | 2.65 | 2.31 | 2.31 | 2.57 | 2.23 |
| CC(C)c1cnn2c(NCc3ccccc3)cc(NCCCCCCN)nc12.Cl [BS-181 HCl] | 9.75 | > 10 | 0.696 | 1.1 | 0.424 | 1.15 | 0.753 | 0.54 | 0.902 | 0.842 | > 10 | > 10 | > 10 | > 10 | > 10 | > 10 | 2.97 | 4.29 | 3.43 | 5.07 | 2.84 | 3.3 | 3.58 | 3.22 |
| CCN(CCO)CCCOc1ccc2c(Nc3cc(CC(=O)Nc4cccc(F)c4)n[nH]3)ncnc2c1 [Barasertib (AZD1152-HQPA)] | 0.194 | > 10 | 0.703 | 1.04 | 0.0818 | 0.767 | 0.449 | 0.583 | 0.408 | 0.74 | > 10 | > 10 | > 10 | 2.08 | 4.36 | > 10 | 2.94 | 4.38 | 1.76 | 3.35 | 2.49 | 2.71 | 2.81 | 3.06 |
| COc1cc(Nc2c(C#N)cnc3cc(OCCCN4CCN(C)CC4)c(OC)cc23)c(Cl)cc1Cl [Bosutinib (SKI-606)] | 2.51 | 0.429 | 0.0431 | 0.233 | 0.0159 | 0.00817 | 0.0478 | 0.0885 | 0.111 | 0.126 | 1.21 | 5.05 | > 10 | 0.849 | 1.65 | 1.14 | 2.61 | 3.08 | 2.94 | 2.35 | 2.38 | 2.16 | 2.68 | 2.34 |
| CC[C@H](Nc1ncnc2[nH]cnc12)c1nc2cccc(F)c2c(=O)n1-c1ccccc1 [CAL-101 (GS-1101)] | > 10 | > 10 | 0.701 | 0.979 | 0.613 | 0.926 | 0.633 | 0.64 | 0.786 | 0.777 | > 10 | > 10 | > 10 | > 10 | > 10 | > 10 | 3.12 | 4.09 | 3.15 | 3.87 | 3.06 | 3.17 | 3.45 | 3.2 |
| O=c1[nH]c2ccc(Cl)cc2c(N[C@@H]2CN3CCC2CC3)c1-c1nc2ccccc2[nH]1 [CHIR-124] | 0.0365 | 0.0403 | 0.168 | 0.0252 | 0.0053 | 0.0103 | 0.0814 | 0.0184 | 0.017 | 0.0133 | 0.129 | 0.498 | 0.0832 | 0.165 | 0.129 | 1.19 | 1.68 | 2.43 | 0.832 | 1.4 | 1.73 | 1.15 | 1.61 | 2.32 |

The next lines start with results.

| GI50, drug alone (786-O [11]) [µM] | GI50, drug alone (ACHN [14]) [µM] | SMILES | minimum viability across doses (TK-10 [1]) | minimum viability across doses (A498 [2]) | minimum viability across doses (786-O [3]) | minimum viability across doses (UO-31 [4]) | minimum viability across doses (CAKI-1 [5]) | minimum viability across doses (ACHN [6]) | minimum viability across doses (769-P [7]) | minimum viability across doses (SN12C [8]) | GI50, drug alone (TK-10 [9]) [µM] | GI50, drug alone (A498 [10]) [µM] | GI50, drug alone (UO-31 [12]) [µM] | GI50, drug alone (CAKI-1 [13]) [µM] | GI50, drug alone (769-P [15]) [µM] | GI50, drug alone (SN12C [16]) [µM] | AUC of dose-response viability curve (TK-10 [17]) | AUC of dose-response viability curve (A498 [18]) | AUC of dose-response viability curve (786-O [19]) | AUC of dose-response viability curve (UO-31 [20]) | AUC of dose-response viability curve (CAKI-1 [21]) | AUC of dose-response viability curve (ACHN [22]) | AUC of dose-response viability curve (769-P [23]) | AUC of dose-response viability curve (SN12C [24]) |
| --- | --- | --- | --- | --- | --- | --- | --- | --- | --- | --- | --- | --- | --- | --- | --- | --- | --- | --- | --- | --- | --- | --- | --- | --- |
| 0.0999 | 2.94 | O=C(NCCCNc1nc(Nc2cccc(NC(=O)N3CCCC3)c2)ncc1I)c1cccs1 [BX-795] | 0.218 | 0.917 | 0.00247 | 0.0155 | 0.17 | 0.217 | 0.149 | 0.458 | 3.93 | > 10 | 5.04 | 2.67 | 5.63 | 7.51 | 2.59 | 4.14 | 1.64 | 4.13 | 2.66 | 2.83 | 3.03 | 2.8 |
| 2.04 | 4.2 | O=C(Nc1cccc(Nc2ncc(Br)c(NCCc3cnc[nH]3)n2)c1)N1CCCC1 [BX-912] | 0.292 | 0.742 | 0.0508 | 0.961 | 0.139 | 0.251 | 0.587 | 0.266 | 5.33 | > 10 | > 10 | 2.07 | > 10 | 5.44 | 2.81 | 4.04 | 2.16 | 3.91 | 2.59 | 3.08 | 3.15 | 2.94 |
| 1.65 | 8.55 | Cc1nc(NC(=O)N2CCC[C@H]2C(N)=O)sc1-c1ccnc(C(C)(C)C(F)(F)F)c1 [BYL719] | 0.404 | 0.982 | 0.155 | 0.927 | 0.502 | 0.396 | 0.762 | 0.638 | 4.8 | > 10 | > 10 | > 10 | > 10 | > 10 | 2.54 | 4.11 | 1.81 | 3.94 | 3.13 | 2.83 | 3.47 | 2.83 |
